# Results reported in US10966959B2, “Use of a rotifer-derived compound and its analogs for preventing schistosomiasis” (Wisconsin Alumni Research Foundation, priority 2018, dated 2021).
# Entries after “also recorded” stand apart in the source; their conditions may differ.
# What was measured:
# [1] = test system: S. mansoni cercariae; test: Cercarial paralysis assay; format: cell-based
# Experimental: Infected B. glabrata snails provided by Biomedical Research Institute (BRI, Rockville, Md.) were maintained in artificial pond water and fed Layer Crumbles (chicken feed) (Rural King, Mattoon, Ill.). To obtain S. mansoni cercariae, B. glabrata snails were exposed to light at 26° C. for 1-2 hrs. Artificial pond water containing cercariae was passed through 100 μm cell strainer (Falcon, Corning Inc., Corning, N.Y.) to remove snail food and feces. Cercariae were then collected using custom-made 20 μm cell strainers.
# Cercarial Paralysis Assay
# To capture the whole field while avoiding excess reflected light in a well, we used the lid of 96-well plate (Costar, Corning Inc., Corning, N.Y.). 40 μL of artificial pond water containing ˜50 cercariae were added to each shallow well on the lid. 10 μL of SPF (dissolved in APW) was then added to reach the final concentration indicated. Using a high-speed camera (Olympus i-SPEED TR), attached to a stereomicroscope (Leica MZ125, Leica Microsystems, Wetzlar, Germany), we recorded cercariae movement at 20-60 fps at 1.25× magnification just prior to addition of test compounds until 3-4 minutes after treatment started. Raw movies were converted to .avi files using i-SPEED Viewer and compressed into JPEG format using ImageJ (addition of compound is considered time 0). We then counted the numbers of free swimming/paralyzed cercariae every 5 seconds for 1 minute and every 30 seconds thereafter for 3 minutes. The number of dead cercariae (those that never swim before and after SPF treatment) were subtracted from data. Experiments were performed in triplicate.
# To determine if cercariae react to SPF or other analogs in a dose-dependent manner, serial dilutions of SPF were made in APW. To quantify the paralysis effect of SPF, the movement of the cercariae was recorded, as well as the number of free-swimming and non-swimming cercariae. In the absence of SPF, over 82% of cercariae were free-swimming over three minutes (FIG. 1(A)). In the presence of 2.5 nM SPF, the percentage of free-swimming cercariae dropped to 67% at three minutes post drug treatment. As the concentration of SPF increased, the rate of paralysis increased, and more cercariae were paralyzed at the end of the treatment.
# [2] = test system: S. mansoni cercariae; test: Mouse infection experiment (mouse tail exposure to drug-treated cercariae); format: in vivo; conditions: for liver granulomas / schistosome eggs in histological liver sections / adult worms recovered from infected mice: six weeks post infection
# Experimental: Mouse Infection Experiment
# Mouse infections were performed by exposing mouse tails to S. mansoni cercariae according to standard protocol from BRI with slight modifications (see Lewis et al., Curr. Protoc. Immunol., 2001, Chapter 19). Briefly, we secured mice in rodent restrainers (Thomas Scientific, Cat #551-BSRR) and put them vertically on top of a rack with grids. We pipetted 100 μL of each drug in proper concentration into a skinny glass tube (Fisher Scientific, Cat #14-958A) inside a 12×75 mm holding glass tube (VWR, Cat #47729-570). 300 μL of APW containing ˜200 cercariae were pipetted into each skinny tube and incubated for 10 mins before we inserted mouse tail. Mouse tails were wiped with APW-moistened Kimwipes, inserted into the skinny tube, and exposed to cercariae for 30 mins. We sacrificed and perfused these mice six week-post infection. For each drug, we initially used three mice for controls (APW only) and three mice for each concentration tested except for 25 nM Ht-13-A and Ht-13-A-pr. We then repeated the experiments again with three mice for each condition. In addition, we included six mice for 25 nM Ht-13-A and Ht-13-A-pr so that we had six biological replicates total for each condition.
# Adult worms were recovered by hepatic portal vein perfusion and briefly incubated in 2.5% Tricaine (Sigma) to separate males and females. We counted total numbers of adult worms under a stereomicroscope (Leica MZ75, Leica Microsystems). Livers from infected mice were fixed in 4% formaldehyde in PBS overnight. Largest liver lobes (left lobe) were submitted to University of Wisconsin-Madison Histology Core Facility for sectioning and Hematoxylin and Eosin staining. Each left lobe was evenly cut into 4-6 pieces and paraffin embedded on a large cassette. One slide (4-6 liver sections) for each liver was used for histological examination, which provided a representative view throughout the whole liver lobe. We took a tiled image of the whole slide using a Zeiss Axio Zoom microscope and used ImageJ (National Institutes of Health, Bethesda, Md.) to determine the area of each section. Total numbers of eggs in each section were counted and normalized to the area.
# To determine if SPF-induced paralysis could prevent infection, ˜200 cercariae were treated with different concentrations of SPF (25 nM, 250 nM, and 2.5 μM) for 10 min followed by a 30 min mouse tail infection (N=6 for each condition). Six-weeks post infection, the mice were euthanized, hepatic portal vein perfusion was performed, recovered schistosomes were counted, and mouse liver pathology was examined. In the control group, 83 adult worms were recovered on average (FIG. 2(A)). Livers from these mice appeared dark in color and had extensive granuloma formation (FIG. 2(A)). […] Without wishing to be bound by theory, it is possible that mechanical and/or chemical stimuli from mouse tails may overcome the SPF-induced paralytic effects at low SPF concentrations.
smiles,measurement,setting,value
"COc1ccc2[nH]cc3c2c1OC1C(C)CN(C)C1C3 (centres unmarked) [SPF, 5-methoxy-7,9-dimethyl-6a,7,8,9,9a,10-hexahydro-2H-pyrrolo[2′,3′:6,7]oxepino[4,3,2-cd]indole]",percentage of free-swimming cercariae,"[1]; 2.5 nM, three minutes post drug treatment",67%
same,paralytic effect on cercariae,"[1]; 25 nM, in vitro",could paralyze most cercariae
same,paralytic effect on cercariae,[1]; 250 nM,maximum paralytic effect; also recorded: full paralysis
same,time until majority of cercariae paralyzed,[1]; 250 nM,≤ 30 s
same,paralytic effect on cercariae,[1]; 2.5 μM,maximum paralytic effect; also recorded: full paralysis
same,time until majority of cercariae paralyzed,[1]; 2.5 μM,≤ 30 s
same,effect on mouse infection,[2]; 25 nM,not as severe
same,blocking / inhibition of infection,[2]; 250 nM,complete inhibition of infection
same,liver granulomas,[2]; 250 nM,no granulomas were observed
same,schistosome eggs in histological liver sections,[2]; 250 nM,clear of schistosome eggs
same,blocking / inhibition of infection,[2]; 2.5 μM,complete inhibition of infection
same,liver granulomas,[2]; 2.5 μM,no granulomas were observed
same,schistosome eggs in histological liver sections,[2]; 2.5 μM,clear of schistosome eggs
same,adult worms recovered from infected mice,[2]; cercariae treated with 250 nM for 10 min,no adult worms could be recovered
same,adult worms recovered from infected mice,[2]; cercariae treated with 2.5 μM for 10 min,no adult worms could be recovered
same,liver appearance (post perfusion),[2]; higher concentrations of drug treatment,normal morphologies with few or no granulomas
same,liver appearance (post perfusion),[2]; lower concentrations of drug,darker in color and contained more granulomas
